Test results reported in ChEMBL document CHEMBL1148207, “Dictyosphaeric acids A and B: new decalactones from an undescribed Penicillium sp. obtained from the alga Dictyosphaeria versluyii” (2004).
Calls of active or inactive are those of the source. The calls are words filed in the database; no cut-off is given here.

How the values were obtained:
[1] = test system: Enterococcus faecium; test: Antibacterial activity against vancomycin-resistant Enterococcus faecium at 50 ug/well; format: functional
[2] = test system: Staphylococcus aureus; test: Antibacterial activity against methicillin-resistant Staphylococcus aureus at 200 ug/well; format: functional, organism-based
[3] = test system: Candida albicans; test: Antimicrobial activity against Candida albicans at 50 ug/well; format: functional
[4] = test system: Staphylococcus aureus; test: Antibacterial activity against methicillin-sensitive Staphylococcus aureus at 50 ug/well; format: functional
[5] = test system: Candida albicans; test: Antimicrobial activity against Candida albicans at 200 ug/well; format: functional, organism-based
[6] = test system: Staphylococcus aureus; test: Antibacterial activity against methicillin-resistant Staphylococcus aureus at 50 ug/well; format: functional
[7] = test system: Staphylococcus aureus; test: Antibacterial activity against methicillin-sensitive Staphylococcus aureus at 200 ug/well; format: functional, organism-based
[8] = test system: Enterococcus faecium; test: Antibacterial activity against vancomycin-resistant Enterococcus faecium at 200 ug/well; format: functional, organism-based

For COc1cc(CO)cc2c1C(=O)c1c(O)cc(O)cc1C2=O, the Activity [1] was “inactive”, the Activity [2] was “inactive” and the Activity [3] was “inactive”. For the same compound, the Activity [4] was “inactive”, the Activity [5] was “inactive” and the Activity [6] was “inactive”. The Activity [7] was “inactive” and the Activity [8] was “inactive”.

Compound C[C@H]1CCC[C@@H](O)[C@]2(O)C(=O)C=C[C@@H]3OC(/C=C/C=C/C=C/C(=O)O)=C(C(=O)O1)[C@@H]32 [DICTYOSPHAERIC ACID A] has a zone of inhibition at 50 µg/disc ([1]; read-out: IZ) of 7 mm, a zone of inhibition at 50 µg/disc ([3]; read-out: IZ) of 7 mm and a zone of inhibition at 50 µg/disc ([4]; read-out: IZ) of 11 mm. It also gave a zone of inhibition at 50 µg/disc ([6]; read-out: IZ) of 12 mm.

In the case of C[C@H]1CCC[C@@H](O)[C@]2(O)C(=O)C[C@H](O)[C@@H]3OC(/C=C/C=C/C=C/C(=O)O)=C(C(=O)O1)[C@@H]32, the Activity [1] was “inactive”, the Activity [3] was “inactive” and the Activity [4] was “inactive”. For the same compound, the Activity [6] was “inactive”.
